# Data reported in PubChem BioAssay AID1259411 (Chemical Carcinogenesis Research Information System (CCRIS), 2018).
# The source made the active and inactive calls. The rule behind the calls is not given here.
# Test system: rodent carcinogenicity bioassays, tumor incidence
# Assay: CCRIS carcinogenicity studies
# In short: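 NCI-built, expert-reviewed records of carcinogenicity and related test outcomes (mutagenicity, tumor promotion/inhibition) compiled from published and report sources, historical span 1985-2011, not updated.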
structure (smiles),measurement,setting,value
C=CN(CC)N=O,carcinogen call,"Species: HAMSTER, Strain/Sex: SYRIAN/FEMALE, Route: SUBCUTANEOUS, Dose: 0.63-5 MG/KG IN OLIVE OIL 1/WK FOR LIFE, Tumor Site: Type of Lesion: NASAL CAVITY: PAPILLOMA, EPIDERMOID CARCINOMA, ADENOCARCINOMA, LARYNX: PAPILLOMA, EPIDERMOID CARCINOMA, TRACHEA: PAPILLO, Tumor Site: Type of Lesion: NASAL CAVITY: PAPILLOMA, EPIDERMOID CARCINOMA, ADENOCARCINOMA, LARYNX: PAPILLOMA, EPIDERMOID CARCINOMA, TRACHEA: PAPILLO",active; positive
same,carcinogen call,"Species: HAMSTER, Strain/Sex: SYRIAN/MALE, Route: SUBCUTANEOUS, Dose: 0.63-5 MG/KG IN OLIVE OIL 1/WK FOR LIFE, Tumor Site: Type of Lesion: NASAL CAVITY: PAPILLOMA, EPIDERMOID CARCINOMA, ADENOCARCINOMA, LARYNX: PAPILLOMA, EPIDERMOID CARCINOMA, TRACHEA: PAPILLO, Tumor Site: Type of Lesion: NASAL CAVITY: PAPILLOMA, EPIDERMOID CARCINOMA, ADENOCARCINOMA, LARYNX: PAPILLOMA, EPIDERMOID CARCINOMA, TRACHEA: PAPILLO",active; positive
same,carcinogen call,"Species: RAT, Route: INTRAVENOUS, Dose: 10.0 MG/KG 1/WK(MEAN TOTAL DOSE 0.25 G/KG), Tumor Site: Type of Lesion: ESOPHAGUS",active; positive
same,carcinogen call,"Species: RAT, Route: ORAL, Dose: 1.30, 2.50 MG/KG 7/WK (MEAN TOTAL DOSE 0.23; 0.42 G/KG), Dose: 1.30, 2.50 MG/KG 7/WK (MEAN TOTAL DOSE 0.23; 0.42 G/KG), Tumor Site: Type of Lesion: ESOPHAGUS",active; positive
O=c1[nH]cc(N(CCCl)CCCl)c(=O)[nH]1,carcinogen call,"Species: MOUSE, Strain/Sex: STRAIN-A/MALE,FEMALE, Route: INTRAPERITONEAL, Dose: 0.18-12 MG/KG IN 12 DOSES OVER 4 WK, Tumor Site: Type of Lesion: LUNG: ADENOMA",active; positive
same,carcinogen call,"Species: MOUSE, Strain/Sex: STRAIN-A/MALE,FEMALE, Route: INTRAPERITONEAL, Dose: 8, 20, 40 MG/KG FOR 7 DOSES OVER 24 WK, Dose: 8, 20, 40 MG/KG FOR 7 DOSES OVER 24 WK, Tumor Site: Type of Lesion: LUNG: ADENOMA",active; positive
same,carcinogen call,"Species: RAT, Strain/Sex: STRAIN-CD/FEMALE, Route: INTRAPERITONEAL, Dose: 0.15, 0.3 MG/KG 3/WK FOR 6 MO, Tumor Site: Type of Lesion: LYMPHATIC SYSTEM: LYMPHOMA, PERITONEAL CAVITY: SARCOMA, MAMMARY GLAND: CARCINOMA, OVARIES: CARCINOMA, Tumor Site: Type of Lesion: LYMPHATIC SYSTEM: LYMPHOMA, PERITONEAL CAVITY: SARCOMA, MAMMARY GLAND: CARCINOMA, OVARIES: CARCINOMA",active; positive
same,carcinogen call,"Species: RAT, Strain/Sex: STRAIN-CD/MALE, Route: INTRAPERITONEAL, Dose: 0.15, 0.3 MG/KG 3/WK FOR 6 MO, Tumor Site: Type of Lesion: LYMPHATIC SYSTEM: LYMPHOMA, PANCREAS, PERITONEAL CAVITY: SARCOMA, Tumor Site: Type of Lesion: LYMPHATIC SYSTEM: LYMPHOMA, PANCREAS, PERITONEAL CAVITY: SARCOMA",active; positive
CI,carcinogen call,"Species: MOUSE, Route: INTRAPERITONEAL, Tumor Site: Type of Lesion: LUNG",active; positive
same,carcinogen call,"Species: RAT, Route: SUBCUTANEOUS, Tumor Site: Type of Lesion: INJECTION SITE",active; positive
same,carcinogen call,"Species: Rat, Strain/Sex: Crl:CD(SD)IGS BR/Female (50/Group), Route: Inhalation (whole body), Dose: 0, 5, 20, 60 ppm for 2 yr, study duration 2 yr, Dose: 0, 5, 20, 60 ppm for 2 yr, study duration 2 yr, Tumor Site: Type of Lesion: Thyroid: follicular cell adenoma (60 ppm)",active; positive
same,carcinogen call,"Species: Rat, Strain/Sex: Crl:CD(SD)IGS BR/Male (50/Group), Route: Inhalation (whole body), Dose: 0, 5, 20, 60 ppm for 2 yr, study duration 2 yr, Dose: 0, 5, 20, 60 ppm for 2 yr, study duration 2 yr, Tumor Site: Type of Lesion: Thyroid: follicular cell adenoma (60 ppm)",active; positive
O=CC(O)C(O)C(O)C(O)COC1OC(COC2OC(CO)C(O)C(O)C2O)C(O)C(O)C1O (stereo unspecified),carcinogen call,"Species: RAT, Strain/Sex: ACI/FEMALE, Route: ORAL, Dose: 0, 2.5% (MOL. WT. 21500) IN DIET FOR 480 D (STUDY DURATION: 480 D)",inactive; negative
same,carcinogen call,"Species: RAT, Strain/Sex: ACI/MALE, Route: ORAL, Dose: 0, 2.5% (MOL. WT. 21500) IN DIET FOR 480 D (STUDY DURATION: 480 D)",inactive; negative
CCOC(=O)CC(SP(=S)(OC)OC)C(=O)OCC (stereo unspecified),carcinogen call,"Species: MOUSE, Strain/Sex: B6C3F1/FEMALE, Route: ORAL, Dose: 0, 8000, 16000 PPM IN DIET, Dose: 0, 8000, 16000 PPM IN DIET",inactive; negative
same,carcinogen call,"Species: MOUSE, Strain/Sex: B6C3F1/MALE, Route: ORAL, Dose: 0, 8000, 16000 PPM IN DIET, Dose: 0, 8000, 16000 PPM IN DIET",inactive; negative
same,carcinogen call,"Species: RAT, Strain/Sex: F344/FEMALE, Route: ORAL, Dose: 0, 2000, 4000 PPM IN DIET, Dose: 0, 2000, 4000 PPM IN DIET",inactive; negative
same,carcinogen call,"Species: RAT, Strain/Sex: F344/MALE, Route: ORAL, Dose: 0, 2000, 4000 PPM IN DIET, Dose: 0, 2000, 4000 PPM IN DIET",inactive; negative
same,carcinogen call,"Species: RAT, Strain/Sex: OSBORNE-MENDEL/FEMALE, Route: ORAL, Dose: 0, 4700, 8150 PPM IN DIET, TWA FOR 80 WK, Dose: 0, 4700, 8150 PPM IN DIET, TWA FOR 80 WK",inactive; negative
same,carcinogen call,"Species: RAT, Strain/Sex: OSBORNE-MENDEL/MALE, Route: ORAL, Dose: 0, 4700, 8150 PPM IN DIET, TWA FOR 80 WK, Dose: 0, 4700, 8150 PPM IN DIET, TWA FOR 80 WK",inactive; negative
C=CC(=O)OCCCCCC(C)C,carcinogen call,"Species: MOUSE, Strain/Sex: C3H/MALE, Route: DERMAL, Dose: 25 µL (5% V/V) IN ACETONE APPLIED TO BACK 3 D/WK FOR LIFE (STUDY DURATION: LIFE)",inactive; negative
CCC(=O)N(O)c1ccc(/C=C/c2ccccc2)cc1,carcinogen call,"Species: RAT, Strain/Sex: STRAIN-CD/FEMALE, Route: INTRAPERITONEAL, Dose: 0, 10 UMOL/KG BW 2/WK FOR 6 WK (STUDY DURATION: 62 WK), Tumor Site: Type of Lesion: LIVER: NEOPLASTIC NODULE, MAMMARY GLAND: TUMOR, EAR DUCT: TUMOR, PITUITARY GLAND: CARCINOMA, Tumor Site: Type of Lesion: LIVER: NEOPLASTIC NODULE, MAMMARY GLAND: TUMOR, EAR DUCT: TUMOR, PITUITARY GLAND: CARCINOMA",active; positive
same,carcinogen call,"Species: RAT, Strain/Sex: STRAIN-CD/MALE, Route: INTRAPERITONEAL, Dose: 0, 10 UMOL/KG BW 2/WK FOR 6 WK (STUDY DURATION: 62 WK), Tumor Site: Type of Lesion: TESTICLE: MESOTHELIOMA, PANCREAS(ACINUS): ADENOMA, PANCREAS(ISLET CELL): CARCINOMA, EAR DUCT: ADENOMA, CARCINOMA, LIVER:, Tumor Site: Type of Lesion: TESTICLE: MESOTHELIOMA, PANCREAS(ACINUS): ADENOMA, PANCREAS(ISLET CELL): CARCINOMA, EAR DUCT: ADENOMA, CARCINOMA, LIVER:",active; positive
Nc1ccc2c(n1)[nH]c1ccccc12,carcinogen call,"Species: MOUSE, Strain/Sex: CDF1/FEMALE, Route: ORAL, Dose: 0, 0.08% IN DIET FOR UP TO 685 D (STUDY DURATION: 685 D), Tumor Site: Type of Lesion: LIVER: HEPATOCELLULAR ADENOMA OR CARCINOMA, BLOOD VESSELS: HEMANGIOENDOTHELIAL SARCOMA",active; positive
same,carcinogen call,"Species: MOUSE, Strain/Sex: CDF1/MALE, Route: ORAL, Dose: 0, 0.08% IN DIET FOR UP TO 685 D (STUDY DURATION: 685 D), Tumor Site: Type of Lesion: LIVER: HEPATOCELLULAR ADENOMA OR CARCINOMA, BLOOD VESSELS: HEMANGIOENDOTHELIOMA OR HEMANGIOENDOTHELIAL SARCOMA",active; positive
same,carcinogen call,"Species: RAT, Strain/Sex: SPRAGUE-DAWLEY/FEMALE, Route: ORAL, Dose: 0, 75 MG/KG IN 5 ML CORN OIL 1/D ON DAYS 43-47 AND 50-54 OF AGE ADMINISTERED TO RATS PLACED ON HIGH-FAT (23.5% CORN OIL)",inactive; negative
CC(=O)N1C(C)CN(N=O)CC1C (stereo unspecified),carcinogen call,"Species: RAT, Strain/Sex: F344/FEMALE, Route: ORAL, Dose: 0, 130 MG/L IN DRINKING WATER 5 D/WK FOR 30 WK, STUDY DURATION: 30-40 WK, Dose: 0, 130 MG/L IN DRINKING WATER 5 D/WK FOR 30 WK, STUDY DURATION: 30-40 WK, Tumor Site: Type of Lesion: ESOPHAGUS: CARCINOMA, TONGUE: PAPILLOMA OR CARCINOMA",active; positive
C=[N+]=[N-],carcinogen call,"Species: MOUSE, Route: INHALATION, DERMAL, Tumor Site: Type of Lesion: LUNG",active; positive
same,carcinogen call,"Species: RAT, Route: INHALATION, Tumor Site: Type of Lesion: LUNG",active; positive
O[C@H]1[C@@H]2O[C@@H]2c2c(ccc3cc4ccc5ccccc5c4nc23)[C@@H]1O,carcinogen call,"Species: MOUSE, Strain/Sex: CD-1/FEMALE, Route: INTRAPERITONEAL, Dose: 0, 175 NMOL (TOTAL DOSE) ADMINISTERED AS 1/7 OF DOSE WITHIN 24 HR AFTER BIRTH, 2/7 OF DOSE AT 8 D OLD, 4/7 OF DOSE AT 15, Tumor Site: Type of Lesion: LUNG: TUMOR",active; positive
same,carcinogen call,"Species: MOUSE, Strain/Sex: CD-1/MALE, Route: INTRAPERITONEAL, Dose: 0, 175 NMOL (TOTAL DOSE) ADMINISTERED AS 1/7 OF DOSE WITHIN 24 HR AFTER BIRTH, 2/7 OF DOSE AT 8 D OLD, 4/7 OF DOSE AT 15, Tumor Site: Type of Lesion: LIVER: TUMOR",active; positive
